Data: patent US12029682B2, “Spray ejector mechanisms and devices providing charge isolation and controllable droplet charge, and low dosage volume ophthalmic administration” (EYENOVIA, INC., priority 2012, dated 2024)
“Also recorded” adds a separate entry of the source.

Assays:
Format in all cases: in vivo, beagle dog
[1] = system: glaucomatous beagles; experiment: Intraocular pressure (IOP), TonoVet, in glaucomatous beagles; details: for IOP decrease: 6.0 μl at 0.025% via spray ejector device and 0.005% eyedropper had similar results
[2] = system: glaucomatous beagles; experiment: as above
Description: (§1) One glaucomatous beagle dog (female, aged 3 years) from the University of Florida MacKay Colony of Glaucomatous Beagles was chosen for this study. The animal was rested a minimum of one week before starting the study. Prior to the commencement of the study, the animal was assigned one eye to receive 1.5 μl of 0.005% latanoprost and the contralateral eye to remain untreated as a control. The basic measurement protocol was followed at all times and performed by the same operator. PD was measured via Jameson Caliper (mm horizontally). IOP was measured using a TonoVet instrument with clean probe (iCare). IOP and PD were measured at time 0, 1, 2, 4, 7 and 18 hours daily for two days. Immediately after the time 0 measurement, the animal received 1.5 μl of 0.005% latanoprost in its assigned eye with a spray device. The contralateral eye was left untreated. The spray device was checked for accuracy before and after every use, and required a 10% delivered dose accuracy in pretreatment. Standard measurements continued throughout each day at time 1, 2, 4, 7 and 18 hours. Possible endpoints included, but were not limited to, excessive ocular irritation, ocular damage, and other illness or injury. No statistical crossover was utilized for this study.
as §1, with “study.” for “study. The animal was rested a minimum of one week before starting the study.”, “receive 3.0” for “receive 1.5”, “0 measurements,” for “0 measurement,”, “animal was administered 3.0” for “animal received 1.5”, “eye using” for “eye with”, “spray ejector” for “spray”
All animals were rested for a minimum of one week before starting the trials. IOP and pupil diameter (PD) were measured 5 times (at 0, 1, 2, 4, and 7 hours) daily for four days (study days 1-4) to establish initial baseline levels. The basic measurement protocol was followed at all times and performed by the same operator. PD was measured via Jameson Caliper (mm horizontally). IOP was measured with a TonoVet instrument with clean probe (iCare). After three rest days, one eye was randomly assigned to receive 9 μl of 0.005% latanoprost delivered via a spray ejector device, and the contralateral eye was administered traditional latanoprost from a traditional eyedropper container (26-30 μl).
On study days 5-9, IOP and PD measurements were taken at approximately 0900 h (time 0). Immediately after time 0 measurements, each animal received a once-daily dose of 9 μl of generic 0.005% latanoprost in its assigned eye via the spray ejector device. The contralateral eye received a clinical dose (one drop) of the same commercially available topical drug from a traditional eyedropper (positive control). The spray ejector device was checked for accuracy before and after every use and required a 10% delivered dose accuracy in pretreatment. Standard measurements continued throughout each day at 0, 1, 2, 4, and 7 hours. Possible endpoints included, but were not limited to, excessive ocular irritation, ocular damage, and other illness or injury. No statistical crossover was utilized for this study. […]

[3] = system: glaucomatous beagles; experiment: Ocular irritation observations in glaucomatous beagles
Description: Active drug delivery begins on study day eight. For five days, IOP and PD measurements are taken at 0900. Immediately after 0900 measurements (time 0), each animal receives 6 μl of generic latanoprost in its assigned eye with the ejector device, followed by a second dosing 3 minutes later of an additional 6 μl (to avoid overloading the conjunctival sac). The contralateral eye receives a clinical dose (one drop) of the same commercially-available topical drug from FDA approved container (positive control). The ejector device is checked for accuracy before and after every use (Table 1). Standard measurements continue throughout each day (at 0:30, 0:45, 1, 2, 7 hrs). Possible endpoints include, but are not limited to, excessive ocular irritation, ocular damage, or other illness and injury. […]
On study days 5-9, IOP and PD measurements were taken at approximately 0900 h (time 0). Immediately after these measurements, each animal received 6 μl of 0.03% bimatoprost in its assigned eye via the spray ejector device. The contralateral eye received a clinical dose (one drop) of the same commercially available topical drug from a traditional eyedropper (positive control). The spray ejector device was checked for accuracy before and after every use and required a 10% delivered dose accuracy in pretreatment. Standard measurements continued throughout each day at 0, 1, 2, 4, and 7 hours. Possible endpoints included, but were not limited to, excessive ocular irritation, ocular damage, and other illness or injury. No statistical crossover was utilized for this study.
Ophthalmic examinations (slit lamp with fluorescein and indirect ophthalmoscopy) were performed on the eyes of each animal prior to Study Day 1. Ocular findings were scored according to the McDonald-Shadduck Score System. Ocular findings were recorded using a standardized data collection sheet. Macroscopic observations were recorded in accordance with the Draize Scale for Scoring Ocular Lesions. Animals were assigned treatments based on basic randomization prior to study day one.
Following a 7 day rest period, the eye choice was reversed. Measurements of IOP, heart rate and pupil diameter (PD) were made at 0:15, 0:30, 0:45, 1, 2, 4, 7, and 18 hours in the primary and crossover study. A veterinary ophthalmologist evaluated each test subject before and after the study for evidence of ocular side effects.
Ophthalmic examinations (slit lamp with fluorescein and indirect ophthalmoscopy) were performed on the eyes of each animal prior to study day 1. Ocular findings were scored according to the McDonald-Shadduck score system and macroscopic observations were recorded in accordance with the Draize scale for scoring ocular lesions. Ocular findings were recorded using a standardized data collection sheet.

[4] = system: glaucomatous beagles; experiment: Pupil diameter (PD), Jameson Caliper, in glaucomatous beagles
[5] = 1.5 μl of 0.005% once daily, spray ejector device, one dog, by hour 2
[6] = 3.0 μl of 0.005% once daily, spray ejector device, one dog, by hour 2
[7] = 12 μl of 0.005% BID via spray ejector device

Compound: CC(C)OC(=O)CCC/C=C\C[C@@H]1[C@@H](CC[C@@H](O)CCc2ccccc2)[C@H](O)C[C@@H]1O [latanoprost]
- duration of action vs spray ejector device ([1]; 0.005%, one drop (26-30 μl) by eyedropper): greater
- maximum decrease in IOP from the initial value [1, 5]: 16 mmHg
- IOP in the treated eye [1, 6]: 19 mmHg
- effectiveness at lowering IOP and constricting the pupil vs traditional eyedropper therapy ([1]; 3.0 μl of 0.005% via spray ejector device): as effective at lowering IOP and constricting the pupil as traditional eyedropper therapy
- IOP values vs baseline ([1]; 9 μl of 0.005% once daily via spray ejector device): significantly lower than baseline
- average daily change / average fluctuation in IOP (maximum minus minimum) [1, 7]: 7.6 mmHg
- average fluctuation in IOP [1, 7]: 30%
- morning IOP spike compared to eyedropper delivery [1, 7]: consistently prevented the anticipated morning IOP spike
- maximum IOP ([1]; 12 μl of 0.005% BID via spray ejector device, day 8): 17.2±3.0 mmHg
- minimum IOP ([1]; 12 μl of 0.005% BID via spray ejector device, day 8, hour 7): 13.6±1.2 mmHg
- maximum IOP ([1]; 12 μl of 0.005% BID via spray ejector device, day 9): 26.2±6.3 mmHg
- minimum IOP ([1]; 12 μl of 0.005% BID via spray ejector device, day 9, hour 4): 16.2±1.5 mmHg
- maximum IOP ([1]; 12 μl of 0.005% BID via spray ejector device, day 10): 27.5±3.5 mmHg
- minimum IOP ([1]; 12 μl of 0.005% BID via spray ejector device, day 10, hour 4): 14.0±1.3 mmHg
- maximum IOP ([1]; 12 μl of 0.005% BID via spray ejector device, day 11): 26.5±2.8 mmHg
- minimum IOP ([1]; 12 μl of 0.005% BID via spray ejector device, day 11, hour 7): 14.7±0.9 mmHg
- effectiveness at lowering/controlling IOP vs traditional eyedropper therapy ([1]; 30 μl of 0.005% once daily via spray ejector device, 2 dogs): as effective at lowering IOP and constricting the pupil as the traditional eyedropper therapy; also recorded: as effective in controlling IOP as traditional eyedropper therapy
- duration of action vs eyedropper ([1]; 30 μl of 0.005% via spray ejector device, pilot study): trend toward increased duration of action
- IOP: spray ejector device 6.0 μl at 0.025% vs 0.005% eyedropper ([1]; any point in the study (p=0.823)): no significant differences; also recorded: statistically equivalent
- IOP decrease ([1]; first day of the study): approximately 45.4 mmHg
- maximum decrease in IOP ([1]; one drop of 0.005% by eyedropper, over the 5 days of the study): 27.5 mmHg
- IOP decrease ([1]; subsequent days): ~24.7 mmHg
- IOP in the treated eye [2, 5]: 11 mmHg
- effectiveness at lowering IOP and constricting the pupil vs traditional therapy ([2]; 1.5 μl of 0.005% via Whisper MDD): as effective at lowering IOP and constricting the pupil as traditional therapy
- time of maximum decrease in IOP ([2]; 3.0 μl of 0.005% once daily, spray ejector device, one dog): hour 7 on day 2
- decrease in IOP from the initial value [2, 6]: 12 mmHg
- effectiveness at lowering/controlling IOP vs traditional eyedropper therapy ([2]; 9 μl of 0.005% once daily via spray ejector device vs one drop (26-30 μl), 5 days, 7-hour period): as effective at lowering IOP and constricting the pupil as traditional therapy; also recorded: as effective at controlling IOP as traditional eyedropper therapy
- maximum decrease in IOP ([2]; 12 μl of 0.005% BID via spray ejector device, study day 7 (first day of instillation)): 28 mmHg
- IOP level ([2]; 12 μl of 0.005% BID via spray ejector device, study day 7, hour 7): 15.5±2.2 mmHg
- average daily change in IOP (maximum minus minimum) ([2]; one drop of 0.005% by eyedropper): 14.6 mmHg
- IOP: ejector device treatment vs traditional treatment ([2]; two 6 μl doses of 0.005% via ejector device vs one drop by eyedropper): no significant differences; also recorded: statistically indistinguishable
- ocular irritation, injury, or discomfort ([3]; 0.005%, either treatment (spray ejector device BID, eyedropper)): no significant reports of ocular irritation, injury, or discomfort
- excessive eye irritation or other eye issues ([3]; 0.005%, ejector device 12 μl and eyedropper): no reports of excessive eye irritation or other eye issues
- irritation ([3]; 6.0 μl at 0.025% spray ejector device and 0.005% eyedropper): Normal irritation caused by prostaglandin analogues was present
- irritation vs eyedropper-treated eyes ([3]; 9 μl of 0.005% via spray ejector device): less than that observed in the eyedropper-treated eyes
- irritation to the eye with the lower dosage [3, 7]: less irritation to the eye
- irritation vs eyedropper administration ([3]; five times (5×) concentration (0.025%) via spray ejector device): no more irritation than that occurring following eyedropper administration
- conjunctival irritation ([3]; traditional treatment eyes (eyedropper), related to prostaglandin use): Some conjunctival irritation was noted
- duration of PD constriction vs eyedropper [4, 7]: remained constricted much longer
- PD: spray ejector device 6.0 μl at 0.025% vs 0.005% eyedropper ([4]; any point in the study (p=0.943)): no significant differences
- minimum PD ([4]; both treatments (spray ejector device BID, eyedropper), by time 1 hour on most days): pinpoint
- PD ([4]; by time 1 hour each day, 6.0 μl at 0.025% spray ejector device and 0.005% eyedropper): 0 mm
